“Also recorded” adds a separate entry of the source.
Assays:
[1] = system: Candida albicans; assay: Growth of other bacteria and fungi; type: cell-based
[2] = system: protein kinase (PK) C zeta (ζ); assay: Phosphorylation of PKCζ in C2 cells (immunoblotting, confocal microscopy); type: cell-based, human; settings: within 20 min
Excerpt: To learn more about how AMP peptide could participate in the establishment of TJ structures and epithelial cell polarity during epithelial wound healing, attention was focused on protein kinase (PK) C zeta (ζ), an atypical PKC that appears to be required for assembly of TJs (Suzuki et al., 2001). PKCζ, presumably in its active form phospho-PKCζ, regulates TJs, apparently by interacting with several TJ-associated proteins including occludin, PAR-6, and PAR-3.

[3] = system: mice with DSS-induced colitis; assay: DSS-induced colitis in mice (blood in stool, body weight); type: in vivo, C57BL/6 male mice; settings: P<0.01
Experimental: FIG. 27, Left Panel: Effect of AMP peptide on appearance of blood in the stool of mice with DSS-induced colitis. Mice (n=50) were given 3% dextran sulfate sodium, and stools were assayed daily for the presence of blood. Appearance of bloody diarrhea was delayed in animals treated with AMP peptide (10 mg/kg body weight/day) compared to those given the vehicle (P<0.01). Right panel: Effect of treatment with AMP peptide on body weight of mice with DSS colitis. After animals (n=20) received 3% DSS to drink for 4 days, they were switched to water (day 0 on graph).
To evaluate the therapeutic efficacy of AMP peptide in vivo, colitis of mild to moderate severity was induced in C57BL/6 male mice by giving the animals DSS (3%) dissolved in tap water to drink ad libitum. Evidence of colitis (blood in the stool assayed by hemoccult strips) was found as early as day 1 (FIG. 27, left panel), and in all animals given injections of the vehicle subcutaneously (s.c.) by day 4. AMP peptide was administered s.c. one day before animals were given DSS, and once per day thereafter. Bloody stool was detected in fewer animals given AMP peptide than the vehicle (P<0.01; n=50).
To look for a systemic effect of treatment with AMP peptide during the development of DSS colitis, body weight was measured. During the first 4 days of DSS administration, body weight changed little in peptide- or vehicle-treated mice. Then DSS was discontinued, the animals were given water to drink (day 0; FIG. 27, right panel), and measurements of weight were continued. […] Because DSS treatment appeared to injure barrier function in monolayer cultures of C2 cells, assessed as a decrease in TER (FIG. 22) and reduced occludin in the detergent-insoluble fraction (FIG. 36), a question was whether DSS might adversely affect the content of this TJ protein in vivo. […] Occludin levels in the NP-40-insoluble fraction were assessed by immunoblotting. […]

[4] = system: IEC-6 cells; assay: [3H]thymidine incorporation into DNA in IEC-6 cells; type: cell-based, rat
Excerpt: Growth stimulation by peptide 77-97 was additive with that of EGF. […] HAE cells were used to test whether AMP-18 can exert an effect on epithelial cells that exist in the local environment of its synthesis. These cells, provided by Dr. Duane Smoot, Howard University College of Medicine, are not completely immortalized and therefore have limited passage number. Growth stimulation of HAE cells by peptide 77-97 was apparently additive with that of EGF (FIG. 16, left panel). Not only does the AMP peptide stimulate growth but it also acted as a motogen, resulting in more rapid migration (restitution) of cells into scrape wounds made in confluent cultures. […] Near-maximal growth stimulation was detected at an AMP peptide concentration of 0.5 μg/ml (0.23 μM) (FIG. 15, center panel), a much lower value than the concentration needed for trefoil peptides (1 μg/μl) (˜150 μM) or the α-defensin, cryptdin 3 ([…]) (˜140 μM) to exert their effects in culture. […]
Non-transformed monkey kidney epithelial cell line BSC-1 and other epithelial cell lines were used to assess effects on growth. […] AMP-18 preparations were added to the culture medium and 4 days later the cell monolayer was rinsed, detached with trypsin, and the cells were counted using a hemocytometer. […]

[5] = system: AGS cells; assay: Growth of gastric epithelial AGS cells (cell count four days later); type: cell-based, human
Experimental: To characterize the capacity of gastric and intestinal cells to respond to AMP-18, AGS gastric adenocarcinoma cells, HAE human gastric antrum mucosa primary cultures transformed with SV40 large T antigen, rat diploid small intestinal epithelial cells of the IEC-6 (FIG. 15) and IEC-18 lines, NCI N-87 gastric carcinoma cells, and SK-GT5 gastroesophageal adenocarcinoma cells were studied; human WI-38 fibroblasts and HeLa cells served as non-GI control cell lines. Mitogenesis was assayed by performing cell counts 3 to 4 days after exposing cells to the agent of interest, trypsinizing the culture to prepare single cells, and confirming this while counting them in a hemocytometer.

Sequence: LDALVKEKKLQGKGPGGPPPK [97–117, peptide 77-97 of the mature protein, same as 97-117 of the human precursor]
- growth of Candida albicans [1]: did not alter the growth
- phosphorylation of PKCζ [2]: increase in phosphorylation
- appearance of blood in the stool (bloody diarrhea) versus vehicle ([3]; 3% DSS, 10 mg/kg body weight/day s.c., listed as AMP peptide, 10 mg/kg/day): fewer animals; also recorded: delayed
- body weight loss versus vehicle ([3]; 3 days after switching from 3% DSS to water, 10 mg/kg s.c. daily): lost less weight
- recovery of body weight ([3]; day 7 after stopping DSS, listed as AMP peptide): complete recovery; also recorded: completely recovered
- stimulation of [3H]thymidine incorporation into DNA ([4]; P<0.001): 68%
- [3H]thymidine incorporation into DNA ([4]; with peptide, without 16,668±616): 28,036±882
- growth stimulation together with EGF ([5]; peptide 77-97 8 μg/ml + EGF 50 ng/ml): additive
- growth stimulation of AGS cells (in words) ([5]; peptide 77-97 8 μg/ml, EGF 50 ng/ml at saturating doses): stimulated growth; also recorded: mitogenic
